Data reported in patent US8734837B2, “Enhancement of development of oviparous species by in ovo feeding of enteric modulators” (North Carolina State University, priority 2000, dated 2014).

Key:
Type in all cases: in vivo
[1] = Hatchability rate of turkey poults by HMB dosage injected in ovo (Example 10, FIG. 6)
Protocol: (§1) Three hundred commercial turkey eggs were stored for three weeks in a cooler at 55° F. and then placed in an egg incubator. After 24 days of incubation, eggs identified as fertile by candling the eggs were randomly assigned to 5 groups of 50 eggs. Each group of 50 eggs was then injected into the air cell at a depth of 0.25 inches with a 0.10 ml saline (0.89% NaCl) solution containing 0, 0.1, 1.0, 10.0, and 100.0 milligrams of Ca-HMB.
(§2) After injection, the eggs were placed in hatching baskets such that each treatment was equally represented in each location of the incubator. Hatched poults were recovered from the incubator at 28 days of incubation and the number of hatched poults per treatment group recorded. The hatched poults were then sacrificed and blood glucose was determined in accordance with known techniques (see Donaldson and Christensen, Comp. Biochem. Physiol. 98A, 347-350 (1991)). Livers were removed and glycogen content of each liver was determined by known techniques (see Dreiling et al., Meat Sci. 20, 167-177 (1987)).

[2] = Liver glycogen of turkey poults by HMB dosage injected in ovo (Example 10, FIG. 7); conditions: turkey poults at hatch; all HMB dosage levels (0.1-100.0 milligrams)
Protocol: as §1, §2

[3] = Plasma glucose of turkey poults by HMB dosage injected in ovo (Example 10, FIG. 8); conditions: turkey poults at hatch
Protocol: as §1, §2

In the case of `CC(C)(O)CC(=O)O` [HMB, beta-hydroxy-beta-methylbutyrate], the Hatchability rate ([1]; turkey eggs stored 3 weeks, 0.1 and 1.0 milligrams HMB in 0.1 ml saline into air cell at 24 days of incubation, control 72.3%) is reported as 81.6%, the “Hatchability rate (in words)” value ([1]; turkey eggs, HMB injected above 1.0 milligrams) is reported as “hatchability rate decreased” and the “Liver glycogen content, increase compared with the control treatment” value [2] is reported as “about 40%”. The “Plasma glucose concentration (in words)” value ([3]; 0.1 milligram HMB dosage) was “significantly increased plasma glucose concentration” and the “Plasma glucose concentration (in words)” value ([3]; other HMB dosage levels (1.0, 10.0, 100.0 milligrams)) was “no significant effect on plasma glucose”.
